Reference: patent US20110166121A1 (LG LIFE SCIENCES LTD., priority 2008, published 2011)

Experiments:
[1] = biological target: T1, Human P2Y12 receptor (Homo sapiens, UniProt Q9H244); assay: Human P2Y12 receptor cell membrane binding assay with [3H] 2-Mes-ADP; conditions: 1 nM [3H] 2-Mes-ADP, membranes of HEK cells expressing P2Y12 receptor; read-out: Binding activity (IC50)
T1 construct: expressed in transfected cells; host or cells: HEK cells
Procedure, shortened: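 Membranes from HEK cells expressing human P2Y12 were incubated with compound and 1 nM [3H]2-MeS-ADP for 1 h at room temperature. Bound radioactivity was collected by GF/B filtration.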

[2] = system: Human platelet aggregation caused by ADP; assay: Inhibition of ADP-induced platelet aggregation (Mimic-human PRP); type: cell-based; conditions: 20 μM ADP, human platelet concentrate diluted with PPP, absorption at 595 nm
Procedure, shortened: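 Human PRP diluted with PPP to 3–4×10^8 platelets/mL was preincubated 20 min at room temperature with compound (0.01–30 μM, DMSO), then stimulated with 20 μM ADP. Aggregation read as A595 increase at 3 min versus 0 and 20 μM ADP controls; Ki from sigmoidal non-linear regression.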

T1 sequence (Q9H244 whole entry): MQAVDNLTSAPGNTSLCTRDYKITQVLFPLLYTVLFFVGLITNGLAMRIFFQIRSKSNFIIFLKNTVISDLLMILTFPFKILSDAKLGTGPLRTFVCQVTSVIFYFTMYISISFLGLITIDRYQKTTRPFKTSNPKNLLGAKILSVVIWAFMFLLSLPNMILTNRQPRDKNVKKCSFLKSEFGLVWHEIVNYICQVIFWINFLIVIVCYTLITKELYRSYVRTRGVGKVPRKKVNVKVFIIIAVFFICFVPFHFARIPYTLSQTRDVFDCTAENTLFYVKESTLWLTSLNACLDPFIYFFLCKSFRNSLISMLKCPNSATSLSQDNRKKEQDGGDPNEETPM

Row | Compound | IC50 [1] | Ki [2]
1 | CCCCc1cc2c(N3CCn4c(nnc4C(F)(F)F)C3)nc(NCCO)nc2s1 [Example 2-15, 2-[6-Butyl-4-(3-trifluoromethyl-5,6-dihydro-8H-[1,2,4]triazolo[4,3-a]pyrazin-7-yl)-thieno[2,3-d]pyrimidin-2-ylamino]-ethanol] | 240 nM | 223 nM
2 | CCCCc1cc2c(N3CCn4c(nnc4C(F)(F)F)C3)nc(N3CCN(C)CC3)nc2s1 [Example 2-16, 7-[6-Butyl-2-(4-methyl-piperazin-1-yl)-thieno[2,3-d]pyrimidin-4-yl]-3-trifluoromethyl-5,6,7,8-tetrahydro-[1,2,4]triazolo[4,3-a]pyrazine] | 188 nM | 817 nM
3 | CC(C)Cc1cc2c(N3CCn4c(nnc4C(F)(F)F)C3)nc(N3CCNC(=O)C3)nc2s1 [Example 2-17, 4-[6-Isobutyl-4-(3-trifluoromethyl-5,6-dihydro-8H-[1,2,4]triazolo[4,3-a]pyrazin-7-yl)-thieno[2,3-d]pyrimidin-2-yl]-piperazin-2-one] | 367 nM | 440 nM
4 | CC(C)Cc1cc2c(N3CCn4c(nnc4C(F)(F)F)C3)nc(N3CC[C@@H](O)C3)nc2s1 [Example 2-18, (R)-1-[6-Isobutyl-4-(3-trifluoromethyl-5,6-dihydro-8H-[1,2,4]triazolo[4,3-a]pyrazin-7-yl)-thieno[2,3-d]pyrimidin-2-yl]-pyrrolidin-3-ol] | 330 nM | 310 nM
5 | O=C1CN(c2nc(N3CCn4c(nnc4C(F)(F)F)C3)c3cc(CCC(F)(F)F)sc3n2)CCN1 [Example 2-19, 4-[4-(3-Trifluoromethyl-5,6-dihydro-8H-[1,2,4]triazolo[4,3-a]pyrazin-7-yl)-6-(3,3,3-trifluoro-propyl)-thieno[2,3-d]pyrimidin-2-yl]-piperazin-2-one] | 362 nM | 550 nM
6 | O[C@@H]1CCN(c2nc(N3CCn4c(nnc4C(F)(F)F)C3)c3cc(CCC(F)(F)F)sc3n2)C1 [Example 2-20, (R)-1-[4-(3-Trifluoromethyl-5,6-dihydro-8H-[1,2,4]triazolo[4,3-a]pyrazin-7-yl)-6-(3,3,3-trifluoro-propyl)-thieno[2,3-d]pyrimidin-2-yl]-pyrrolidin-3-ol] | 260 nM | 40 nM
7 | CCCc1cc2c(N3CCn4c(nnc4C(F)(F)F)C3)nc(OCC(O)CO)nc2s1 (stereo not drawn) [Example 3-1, 3-[6-Propyl-4-(3-trifluoromethyl-5,6-dihydro-8H-[1,2,4]triazolo[4,3-a]pyrazin-7-yl)-thieno[2,3-d]pyrimidin-2-yloxy]-propane-1,2-diol] | 140 nM | 31 nM
8 | CCCc1cc2c(N3CCn4c(nnc4C(F)(F)F)C3)nc(OCC(CO)CO)nc2s1 [Example 3-2, 2-[6-Propyl-4-(3-trifluoromethyl-5,6-dihydro-8H-[1,2,4]triazolo[4,3-a]pyrazin-7-yl)-thieno[2,3-d]pyrimidin-2-yloxymethyl]-propane-1,3-diol] | 200 nM | 17 nM
9 | CCCc1cc2c(N3CCn4c(nnc4C(F)(F)F)C3)nc(OCCO)nc2s1 [Example 3-3, 2-[6-Propyl-4-(3-trifluoromethyl-5,6-dihydro-8H-[1,2,4]triazolo[4,3-a]pyrazin-7-yl)-thieno[2,3-d]pyrimidin-2-yloxy]-ethanol] | 113 nM | 30 nM
10 | CCCc1cc2c(N3CCn4c(nnc4C(F)(F)F)C3)nc(OCCOC)nc2s1 [Example 3-4, 7-[2-(2-Methoxy-ethoxy)-6-propyl-thieno[2,3-d]pyrimidin-4-yl]-3-trifluoromethyl-5,6,7,8-tetrahydro-[1,2,4]triazolo[4,3-a]pyrazine] | 170 nM | 230 nM
11 | CCCc1cc2c(N3CCn4c(nnc4C(F)(F)F)C3)nc(OC3CCOC3)nc2s1 (stereo not drawn) [Example 3-5, 7-[6-Propyl-2-(tetrahydro-furan-3-yloxy)-thieno[2,3-d]pyrimidin-4-yl]-3-trifluoromethyl-5,6,7,8-tetrahydro-[1,2,4]triazolo[4,3-a]pyrazine] | 91 nM | 26 nM
12 | CCCc1cc2c(N3CCn4c(nnc4C(F)(F)F)C3)nc(OCC3CCCO3)nc2s1 (stereo not drawn) [Example 3-6, 7-[6-Propyl-2-(tetrahydro-furan-2-ylmethoxy)-thieno[2,3-d]pyrimidin-4-yl]-3-trifluoromethyl-5,6,7,8-tetrahydro-[1,2,4]triazolo[4,3-a]pyrazine] | 690 nM | 140 nM
13 | CCCc1cc2c(N3CCn4c(nnc4C(F)(F)F)C3)nc(OC3CCN(C)C3)nc2s1 (stereo not drawn) [Example 3-7, 7-[2-(1-Methyl-pyrrolidin-3-yloxy)-6-propyl-thieno[2,3-d]pyrimidin-4-yl]-3-trifluoromethyl-5,6,7,8-tetrahydro-[1,2,4]triazolo[4,3-a]pyrazine] | 540 nM | 300 nM
14 | CCCc1cc2c(N3CCn4c(nnc4C(F)(F)F)C3)nc(OCC(=O)OC)nc2s1 [Example 3-8, [6-Propyl-4-(3-trifluoromethyl-5,6-dihydro-8H-[1,2,4]triazolo[4,3-a]pyrazin-7-yl)-thieno[2,3-d]pyrimidin-2-yloxy]-acetic acid methyl ester] | 331 nM | 610 nM
15 | CCCc1cc2c(N3CCn4c(nnc4C(F)(F)F)C3)nc(OCC(=O)O)nc2s1 [Example 3-9, [6-Propyl-4-(3-trifluoromethyl-5,6-dihydro-8H-[1,2,4]triazolo[4,3-a]pyrazin-7-yl)-thieno[2,3-d]pyrimidin-2-yloxy]-acetic acid] | 826 nM | 3700 nM
16 | CCCc1cc2c(N3CCn4c(nnc4C(F)(F)F)C3)nc(OCCCO)nc2s1 [Example 3-10, 3-[6-Propyl-4-(3-trifluoromethyl-5,6-dihydro-8H-[1,2,4]triazolo[4,3-a]pyrazin-7-yl)-thieno[2,3-d]pyrimidin-2-yloxy]-propan-1-ol] | 140 nM | 64 nM
17 | CCCc1cc2c(N3CCn4c(nnc4C(F)(F)F)C3)nc(OCCC(=O)O)nc2s1 [Example 3-11, 3-[6-Propyl-4-(3-trifluoromethyl-5,6-dihydro-8H-[1,2,4]triazolo[4,3-a]pyrazin-7-yl)-thieno[2,3-d]pyrimidin-2-yloxy]-propionic acid] | 72 nM | 70 nM
18 | CCCc1cc2c(N3CCn4c(nnc4C(F)(F)F)C3)nc(OCCC(=O)OC(C)C)nc2s1 [Example 3-12, 3-[6-Propyl-4-(3-trifluoromethyl-5,6-dihydro-8H-[1,2,4]triazolo[4,3-a]pyrazin-7-yl)-thieno[2,3-d]pyrimidin-2-yloxy]-propionic acid isopropyl ester] | 160 nM | 50 nM
19 | CCCc1cc2c(N3CCn4c(nnc4C(F)(F)F)C3)nc(OCCC(=O)OCOC(=O)C(C)(C)C)nc2s1 [Example 3-13, 2,2-Dimethyl-propionic Acid 3-[6-propyl-4-(3-trifluoromethyl-5,6-dihydro-8H-[1,2,4]triazolo[4,3-a]pyrazin-7-yl)-thieno[2,3-d]pyrimidin-2-yloxy]-propionyloxymethyl ester] | 410 nM | 430 nM
20 | CCCc1cc2c(N3CCn4c(nnc4C(F)(F)F)C3)nc(OCCC(OC)OC)nc2s1 [Example 3-14, 7-[2-(3,3-Dimethoxy-propoxy)-6-propyl-thieno[2,3-d]pyrimidin-4-yl]-3-trifluoromethyl-5,6,7,8-tetrahydro-[1,2,4]triazolo[4,3-a]pyrazine] | 240 nM | 1100 nM
21 | CCCc1cc2c(N3CCn4c(nnc4C(F)(F)F)C3)nc(OC3CCCC3)nc2s1 [Example 3-15, 7-(2-Cyclopentyloxy-6-propyl-thieno[2,3-d]pyrimidin-4-yl)-3-trifluoromethyl-5,6,7,8-tetrahydro-[1,2,4]triazolo[4,3-a]pyrazine] | 53 nM | 300 nM
22 | CCCc1cc2c(N3CCn4c(nnc4C(F)(F)F)C3)nc(OCc3ccccc3)nc2s1 [Example 3-16, 7-(2-Benzyloxy-6-propyl-thieno[2,3-d]pyrimidin-4-yl)-3-trifluoromethyl-5,6,7,8-tetrahydro-[1,2,4]triazolo[4,3-a]pyrazine] | 39 nM | 27600 nM
23 | CCCCOc1nc(N2CCn3c(nnc3C(F)(F)F)C2)c2cc(CCC)sc2n1 [Example 3-17, 7-(2-Butoxy-6-propyl-thieno[2,3-d]pyrimidin-4-yl)-3-trifluoromethyl-5,6,7,8-tetrahydro-[1,2,4]triazolo[4,3-a]pyrazine] | 110 nM | 3200 nM
24 | CCCc1cc2c(N3CCn4c(nnc4C(F)(F)F)C3)nc(OCc3nc(CC(=O)OCC)co3)nc2s1 [Example 3-18, {2-[6-Propyl-4-(3-trifluoromethyl-5,6-dihydro-8H-[1,2,4]triazolo[4,3-a]pyrazin-7-yl)-thieno[2,3-d]pyrimidin-2-yloxymethyl]-oxazol-4-yl}-acetic acid ethyl ester] | 400 nM | 4300 nM
25 | CCCc1cc2c(N3CCn4c(nnc4C(F)(F)F)C3)nc(OCc3nc(CC(=O)O)co3)nc2s1 [Example 3-19, {2-[6-Propyl-4-(3-trifluoromethyl-5,6-dihydro-8H-[1,2,4]triazolo[4,3-a]pyrazin-7-yl)-thieno[2,3-d]pyrimidin-2-yloxymethyl]-oxazol-4-yl}-acetic acid] | 170 nM | > 4000 nM
26 | CCCc1cc2c(N3CCn4c(nnc4C(F)(F)F)C3)nc(OCc3cocn3)nc2s1 [Example 3-20, 7-[2-(Oxazol-4-ylmethoxy)-6-propyl-thieno[2,3-d]pyrimidin-4-yl]-3-trifluoromethyl-5,6,7,8-tetrahydro-[1,2,4]triazolo[4,3-a]pyrazine] | 84 nM | 840 nM
27 | CCCc1cc2c(N3CCn4c(nnc4C(F)(F)F)C3)nc(OCCc3cc(F)cc(F)c3F)nc2s1 [Example 3-21, 7-{6-Propyl-2-[2-(2,3,5-trifluoro-phenyl)-ethoxy]-thieno[2,3-d]pyrimidin-4-yl}-3-trifluoromethyl-5,6,7,8-tetrahydro-[1,2,4]triazolo[4,3-a]pyrazine] | 110 nM | 390 nM
